# How the values were obtained:
# [1] = biological target: T1, Nucleotide-binding oligomerization domain-containing protein 1 (Homo sapiens, UniProt Q9Y239); experiment: Binding affinity to NOD1 LRR domain (unknown origin)
# T1 sequence (Q9Y239 whole entry): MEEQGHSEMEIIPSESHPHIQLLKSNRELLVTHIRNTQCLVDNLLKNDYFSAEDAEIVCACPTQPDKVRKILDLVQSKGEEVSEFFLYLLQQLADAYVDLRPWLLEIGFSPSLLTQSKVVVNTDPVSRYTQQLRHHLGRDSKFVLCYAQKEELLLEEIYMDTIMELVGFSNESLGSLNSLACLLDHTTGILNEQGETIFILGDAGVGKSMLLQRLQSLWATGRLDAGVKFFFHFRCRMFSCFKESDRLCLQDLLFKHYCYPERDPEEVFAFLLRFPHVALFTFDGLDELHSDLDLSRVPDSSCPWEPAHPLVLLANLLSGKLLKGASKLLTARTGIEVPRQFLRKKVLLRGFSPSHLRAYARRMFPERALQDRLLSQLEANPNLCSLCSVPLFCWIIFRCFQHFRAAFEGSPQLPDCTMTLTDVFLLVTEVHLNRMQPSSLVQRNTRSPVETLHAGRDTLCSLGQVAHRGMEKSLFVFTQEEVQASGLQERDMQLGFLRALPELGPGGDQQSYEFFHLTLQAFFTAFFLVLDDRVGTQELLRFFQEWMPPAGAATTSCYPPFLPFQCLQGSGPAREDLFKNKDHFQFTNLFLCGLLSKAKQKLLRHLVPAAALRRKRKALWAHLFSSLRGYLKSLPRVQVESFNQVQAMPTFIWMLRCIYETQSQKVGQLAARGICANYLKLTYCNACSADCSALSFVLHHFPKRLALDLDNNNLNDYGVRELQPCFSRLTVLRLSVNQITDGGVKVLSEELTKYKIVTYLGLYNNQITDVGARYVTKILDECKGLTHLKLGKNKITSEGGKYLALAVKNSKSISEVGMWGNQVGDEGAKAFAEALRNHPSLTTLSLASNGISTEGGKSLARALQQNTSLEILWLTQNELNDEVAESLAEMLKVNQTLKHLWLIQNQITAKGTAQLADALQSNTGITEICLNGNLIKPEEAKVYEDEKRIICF
# [2] = Binding affinity to Jack bean Concanavalin A by SPR assay; parameters: species or system Canavalia ensiformis
# [3] = biological target: T2, Jacalin (Artocarpus heterophyllus, UniProt Q38720); experiment: Binding affinity to jackfruit jacalin by SPR assay
# T2 sequence (Q38720 whole entry): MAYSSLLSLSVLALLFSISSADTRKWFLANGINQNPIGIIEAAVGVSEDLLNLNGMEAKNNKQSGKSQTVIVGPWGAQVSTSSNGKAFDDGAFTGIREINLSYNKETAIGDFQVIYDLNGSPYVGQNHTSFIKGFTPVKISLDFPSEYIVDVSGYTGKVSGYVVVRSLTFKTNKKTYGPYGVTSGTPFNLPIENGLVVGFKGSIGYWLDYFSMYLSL
# [4] = biological target: Nucleotide-binding oligomerization domain-containing protein 2 (Homo sapiens, UniProt Q9HC29); experiment: Binding affinity to human NOD2 LRR domain expressed in Escherichia coli by SPR assay
# Chain of Nucleotide-binding oligomerization domain-containing protein 2 (Q9HC29 whole entry, the tested form may be a part): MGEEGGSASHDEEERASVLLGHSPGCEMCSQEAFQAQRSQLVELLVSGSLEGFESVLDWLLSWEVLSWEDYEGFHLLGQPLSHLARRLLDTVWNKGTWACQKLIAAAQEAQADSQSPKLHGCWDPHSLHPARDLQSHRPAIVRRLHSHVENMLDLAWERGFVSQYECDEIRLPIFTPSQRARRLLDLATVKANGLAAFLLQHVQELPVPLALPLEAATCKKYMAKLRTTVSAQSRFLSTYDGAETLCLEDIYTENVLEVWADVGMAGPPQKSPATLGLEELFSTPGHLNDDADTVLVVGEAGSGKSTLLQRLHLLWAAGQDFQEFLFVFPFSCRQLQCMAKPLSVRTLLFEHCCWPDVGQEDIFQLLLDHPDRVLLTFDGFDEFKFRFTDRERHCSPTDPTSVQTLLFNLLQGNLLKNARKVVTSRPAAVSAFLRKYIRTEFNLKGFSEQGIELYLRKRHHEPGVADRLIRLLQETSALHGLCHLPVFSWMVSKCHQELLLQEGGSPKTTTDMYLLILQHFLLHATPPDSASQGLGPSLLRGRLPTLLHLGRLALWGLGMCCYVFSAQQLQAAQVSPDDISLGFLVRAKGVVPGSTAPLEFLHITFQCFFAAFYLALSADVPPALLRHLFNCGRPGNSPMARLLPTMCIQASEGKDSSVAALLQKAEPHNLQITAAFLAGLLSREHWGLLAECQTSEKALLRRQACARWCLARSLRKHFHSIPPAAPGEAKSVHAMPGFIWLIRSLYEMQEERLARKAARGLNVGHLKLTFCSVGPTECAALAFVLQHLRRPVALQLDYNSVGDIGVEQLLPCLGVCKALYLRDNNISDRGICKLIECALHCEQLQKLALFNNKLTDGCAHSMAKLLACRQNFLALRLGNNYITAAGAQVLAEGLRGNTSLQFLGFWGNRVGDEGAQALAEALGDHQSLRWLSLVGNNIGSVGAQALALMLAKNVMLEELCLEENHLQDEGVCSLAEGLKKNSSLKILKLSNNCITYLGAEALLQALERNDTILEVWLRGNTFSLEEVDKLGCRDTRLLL
smiles,measurement,setting,value
C[C@H](N)C(=O)N[C@H](CCC(=O)N[C@@H](CCC[C@@H](N)C(=O)O)C(=O)O)C(N)=O,Kd,[1],35 µM
OC[C@H]1OC(O)[C@@H](O)[C@@H](O)[C@@H]1O (stereo partly drawn) [D-MANNOSE],Kd,[2],200 µM
O=C[C@H](O)[C@@H](O)[C@@H](O)[C@H](O)CO [GALACTOSE],Kd,[3],16 µM
CC(=O)N[C@H]1C(O)O[C@H](CO)[C@@H](O)[C@@H]1O[C@H](C)C(=O)N[C@@H](C)C(=O)N[C@H](CCC(=O)O)C(N)=O (some centres undefined) [MURAMYL DIPEPTIDE],Kd,[4],0.2 µM
